Laboratory results taken from patent US8785463B2, “GPR 119 agonists” (Cadila Healthcare Limited, priority 2010, dated 2014).

Biological target: T1, human GPR 119 receptor (Homo sapiens, UniProt Q8TDV5)
T1 construct: expressed in transfected cells
T1 sequence (Q8TDV5 1-335): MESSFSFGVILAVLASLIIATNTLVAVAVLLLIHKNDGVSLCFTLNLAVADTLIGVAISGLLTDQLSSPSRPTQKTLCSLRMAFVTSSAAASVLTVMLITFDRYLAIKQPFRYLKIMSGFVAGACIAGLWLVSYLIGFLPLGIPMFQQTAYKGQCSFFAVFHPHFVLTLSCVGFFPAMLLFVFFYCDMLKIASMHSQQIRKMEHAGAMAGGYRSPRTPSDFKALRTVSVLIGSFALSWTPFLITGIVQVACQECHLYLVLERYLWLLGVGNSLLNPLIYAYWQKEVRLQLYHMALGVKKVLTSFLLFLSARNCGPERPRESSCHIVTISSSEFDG
Assay: cAMP assay in stable cell line expressing recombinant human GPR 119 receptor
Assay type: cell-based
Details: DMSO = 1
From the text: A stable cell line expressing recombinant human GPR 119 receptor was established and used to investigate the efficacy of the compounds of the invention based on the intracellular levels of cyclic AMP (cAMP) using commercially available cAMP kits.

Question: Which “Fold increase in cyclic AMP with respective to DMSO” value (“Fold increase in cyclic AMP” below) (10 nM compound) does the source give for CCc1cnc(N2CCC(Oc3ncnc(Oc4cccc(/C=C5\SC(=O)NC5=O)c4)c3C)CC2)nc1 [Example 26, (Z)-5-(3-((6-((1-(5-Ethylpyrimidin-2-yl)piperidin-4-yl)oxy)-5-methylpyrimidin-4-yl)oxy)benzylidene)thiazolidine-2,4-dione] here?
Answer: Its value is 4.02 fold.

Question: And the “Fold increase in cyclic AMP” value (100 nM compound)?
Answer: Its value is 7.17 fold.

Question: And the “Fold increase in cyclic AMP” value (1 uM compound)?
Answer: Its value is 9.34 fold.

Question: What does the source list for Cc1c(Oc2cccc(/C=C3\SC(=O)NC3=O)c2)ncnc1OC1CCN(c2ncccn2)CC1 [Example 28, (Z)-5-(3-((5-Methyl-6-((1-(pyrimidin-2-yl)piperidin-4-yl)oxy)pyrimidin-4-yl)oxy)benzylidene)thiazolidine-2,4-dione]?
Answer: Fold increase in cyclic AMP with respective to DMSO (10 nM compound): 1.32 fold; Fold increase in cyclic AMP with respective to DMSO (100 nM compound): 2.86 fold; Fold increase in cyclic AMP with respective to DMSO (1 uM compound): 4.56 fold

Question: What does the source list for CC(C)COC(=O)N1CCC(Oc2cc(Oc3ccc(/C=C4\SC(=O)NC4=O)cc3)ncn2)CC1 [Example 53, (Z)-Isobutyl 4-((6-(4-((2,4-dioxothiazolidin-5-ylidene)methyl)phenoxy)pyrimidin-4-yl)oxy)piperidine-1-carboxylate]?
Answer: Fold increase in cyclic AMP with respective to DMSO (10 nM compound): 0.99 fold; Fold increase in cyclic AMP with respective to DMSO (100 nM compound): 1.79 fold; Fold increase in cyclic AMP with respective to DMSO (1 uM compound): 3.59 fold

Question: COC(=O)N1CCC(Oc2ncnc(Oc3cccc(/C=C4\SC(=O)NC4=O)c3)c2C)CC1 [Example 21, (Z)-Methyl 4-((6-(3-((2,4-dioxothiazolidin-5-ylidene)methyl)phenoxy)-5-methylpyrimidin-4-yl)oxy)piperidine-1-carboxylate] was tested. Which “Fold increase in cyclic AMP” value (10 nM compound) did it give?
Answer: The value was 0.92 fold.

Question: And the “Fold increase in cyclic AMP” value (100 nM compound)?
Answer: The value was 1.06 fold.

Question: And the “Fold increase in cyclic AMP” value (1 uM compound)?
Answer: The value was 2.35 fold.

Question: What does the source list for COC(=O)N1CCC(Oc2ncnc(Oc3ccc(/C=C4\SC(=O)NC4=O)cc3)c2C)CC1 [Example 11, (Z)-Methyl 4-((6-(4-((2,4-dioxothiazolidin-5-ylidene)methyl)phenoxy)-5-methylpyrimidin-4-yl)oxy)piperidine-1-carboxylate]?
Answer: Fold increase in cyclic AMP with respective to DMSO (10 nM compound): 1.00 fold; Fold increase in cyclic AMP with respective to DMSO (100 nM compound): 1.38 fold; Fold increase in cyclic AMP with respective to DMSO (1 uM compound): 2.51 fold

Question: Which results are given for CC(C)(C)OC(=O)N1CCC(Oc2cc(Oc3ccc(/C=C4\SC(=O)N(S(C)(=O)=O)C4=O)cc3)ncn2)CC1 [Example 24, (Z)-tert-Butyl 4-((6-(4-((3-(methylsulfonyl)-2,4-dioxothiazolidin-5-ylidene)methyl)phenoxy)pyrimidin-4-yl)oxy)piperidine-1-carboxylate]?
Answer: Fold increase in cyclic AMP with respective to DMSO (10 nM compound): 1.07 fold; Fold increase in cyclic AMP with respective to DMSO (100 nM compound): 1.11 fold; Fold increase in cyclic AMP with respective to DMSO (1 uM compound): 2.27 fold

Question: CCOC(=O)CN1C(=O)S/C(=C\c2cccc(Oc3ncnc(OC4CCN(C(=O)OC(C)(C)C)CC4)c3C)c2)C1=O [Example 45, (Z)-tert-Butyl 4-((6-(3-((3-(2-ethoxy-2-oxoethyl)-2,4-dioxothiazolidin-5-ylidene)methyl)phenoxy)-5-methylpyrimidin-4-yl)oxy)piperidine-1-carboxylate] was tested. Which “Fold increase in cyclic AMP” value (10 nM compound) did it give?
Answer: The value was 1.05 fold.

Question: What about the “Fold increase in cyclic AMP” value (100 nM compound) of the same compound?
Answer: Its value is 1.33 fold.

Question: What about the “Fold increase in cyclic AMP” value (1 uM compound) of the same compound?
Answer: The value was 2.88 fold.

Question: What does the source list for CC(C)COC(=O)N1CCC(Oc2cc(Oc3cccc(/C=C4\SC(=O)NC4=O)c3)ncn2)CC1 [Example 54, (Z)-Isobutyl 4-((6-(3-((2,4-dioxothiazolidin-5-ylidene)methyl)phenoxy)pyrimidin-4-yl)oxy)piperidine-1-carboxylate]?
Answer: Fold increase in cyclic AMP with respective to DMSO (10 nM compound): 1.31 fold; Fold increase in cyclic AMP with respective to DMSO (100 nM compound): 2.28 fold; Fold increase in cyclic AMP with respective to DMSO (1 uM compound): 4.11 fold

Question: Cc1c(Oc2ccc(/C=C3\SC(=O)NC3=O)cc2)ncnc1OC1CCN(c2ncccn2)CC1 [Example 17, (Z)-5-(4-((5-Methyl-6-((1-(pyrimidin-2-yl)piperidin-4-yl)oxy)pyrimidin-4-yl)oxy)benzylidene)thiazolidine-2,4-dione] was tested. Which “Fold increase in cyclic AMP” value (10 nM compound) did it give?
Answer: The value was 0.84 fold.

Question: What about the “Fold increase in cyclic AMP” value (100 nM compound) of the same compound?
Answer: The value was 1.06 fold.

Question: And the “Fold increase in cyclic AMP” value (1 uM compound)?
Answer: Its value is 2.57 fold.
